Experimental findings from PubChem BioAssay AID1259407 (Chemical Carcinogenesis Research Information System (CCRIS), 2018) are described below.

In the data set the test system is CCRIS mutagenicity, Ames/micronucleus/aberration tests. The data set can be described thus: CCRIS mutagenicity studies.
Setting [1] is: Test System: AMES SALMONELLA TYPHIMURIUM, Strain/Indicator: TA98, Metabolic Activation: NONE, Method: PREINCUBATION
Setting [2] is: Test System: AMES SALMONELLA TYPHIMURIUM, Strain/Indicator: TA98, Metabolic Activation: NONE, Method: STANDARD PLATE.
The mark [3] stands for this setting: Test System: AMES SALMONELLA TYPHIMURIUM, Strain/Indicator: TA98, Metabolic Activation: RAT, LIVER, S-9, AROCLOR 1254, Method: STANDARD PLATE.
Where [4] appears, read: Test System: AMES SALMONELLA TYPHIMURIUM, Strain/Indicator: TA100, Metabolic Activation: NONE, Method: PREINCUBATION
[5] abbreviates: Test System: AMES SALMONELLA TYPHIMURIUM, Strain/Indicator: TA100, Metabolic Activation: NONE, Method: STANDARD PLATE.
[6] abbreviates: Test System: AMES SALMONELLA TYPHIMURIUM, Strain/Indicator: TA100, Metabolic Activation: RAT, LIVER, S-9, AROCLOR 1254, Method: STANDARD PLATE.

Activity calls are given as the source filed them. No rule for the calls is given here.

Turning to `Cc1cc(N=Nc2ccccc2C)ccc1N`, the mutagenic call by setting is: (Test System: AMES SALMONELLA TYPHIMURIUM, Strain/Indicator: TA98, Metabolic Activation: HAMSTER, LIVER, S-9, AROCLOR 1254, Method: STANDARD PLATE) “active; positive”; (Test System: AMES SALMONELLA TYPHIMURIUM, Strain/Indicator: TA98, Metabolic Activation: HAMSTER, LIVER, S-9, Method: PREINCUBATION (PRIVAL METHOD)) “active; positive”; under setting [1], “inactive; negative”; under setting [2], “inactive; negative”; (Test System: AMES SALMONELLA TYPHIMURIUM, Strain/Indicator: TA98, Metabolic Activation: RAT LIVER S-9, Method: PREINCUBATION) “active; positive”; (Test System: AMES SALMONELLA TYPHIMURIUM, Strain/Indicator: TA98, Metabolic Activation: RAT LIVER, CYTOSOL, AROCLOR 1254, Method: PREINCUBATION) “inactive; negative”. Besides, the mutagenic call is “active; positive” (Test System: AMES SALMONELLA TYPHIMURIUM, Strain/Indicator: TA98, Metabolic Activation: RAT LIVER, MICROSOMES, AROCLOR 1254, Method: PREINCUBATION); “active; positive” (Test System: AMES SALMONELLA TYPHIMURIUM, Strain/Indicator: TA98, Metabolic Activation: RAT, LIVER, MICROSOMES, AROCLOR 1254, Method: PREINCUBATION); “inactive; negative” (Test System: AMES SALMONELLA TYPHIMURIUM, Strain/Indicator: TA98, Metabolic Activation: RAT, LIVER, MICROSOMES, O-AMINOAZOTOLUENE, Method: PREINCUBATION); “inactive; negative” (Test System: AMES SALMONELLA TYPHIMURIUM, Strain/Indicator: TA98, Metabolic Activation: RAT, LIVER, MICROSOMES, Method: PREINCUBATION); “active; positive” (Test System: AMES SALMONELLA TYPHIMURIUM, Strain/Indicator: TA98, Metabolic Activation: RAT, LIVER, S-9, AROCLOR 1254, HAMSTER, LIVER, S-9, AROCLOR 1254, Method: STANDARD PLATE); “active; positive” under setting [3]. The mutagenic call by setting is: (Test System: AMES SALMONELLA TYPHIMURIUM, Strain/Indicator: TA98, Metabolic Activation: RAT, LIVER, S-9, KC500 OR PHENOBARBITAL, Method: LIQUID SUSPENSION) “active; positive”; (Test System: AMES SALMONELLA TYPHIMURIUM, Strain/Indicator: TA98, Metabolic Activation: RAT, LIVER, S-9, PCB, Method: PREINCUBATION) “active; positive”; (Test System: AMES SALMONELLA TYPHIMURIUM, Strain/Indicator: TA98, Metabolic Activation: RAT, LIVER, S-9, POLYCHLORINATED BIPHENYLS, Method: PREINCUBATION) “active; positive”; (Test System: AMES SALMONELLA TYPHIMURIUM, Strain/Indicator: TA100, Metabolic Activation: HAMSTER, LIVER, S-9, AROCLOR 1254, Method: STANDARD PLATE) “active; positive”; (Test System: AMES SALMONELLA TYPHIMURIUM, Strain/Indicator: TA100, Metabolic Activation: HAMSTER, LIVER, S-9, Method: PREINCUBATION (PRIVAL METHOD)) “active; positive”; under setting [4], “inactive; negative”. The mutagenic call under setting [5] is “inactive; negative”; the mutagenic call (Test System: AMES SALMONELLA TYPHIMURIUM, Strain/Indicator: TA100, Metabolic Activation: RAT LIVER S-9, Method: PREINCUBATION) was “active; positive”; the mutagenic call (Test System: AMES SALMONELLA TYPHIMURIUM, Strain/Indicator: TA100, Metabolic Activation: RAT, LIVER, S-9, AROCLOR 1254, HAMSTER, LIVER, S-9, AROCLOR 1254, Method: STANDARD PLATE) is “active; positive”; the mutagenic call under setting [6] was “active; positive”; the mutagenic call (Test System: AMES SALMONELLA TYPHIMURIUM, Strain/Indicator: TA100, Metabolic Activation: RAT, LIVER, S-9, KC500 OR PHENOBARBITAL, Method: LIQUID SUSPENSION) is “active; positive”; the mutagenic call (Test System: AMES SALMONELLA TYPHIMURIUM, Strain/Indicator: TA100, Metabolic Activation: RAT, LIVER, S-9, PCB, Method: PREINCUBATION) is “active; positive”. For the same compound, the mutagenic call was “active; positive” (Test System: AMES SALMONELLA TYPHIMURIUM, Strain/Indicator: TA100, Metabolic Activation: RAT, LIVER, S-9, POLYCHLORINATED BIPHENYLS, Method: PREINCUBATION); “inactive; negative” (Test System: AMES SALMONELLA TYPHIMURIUM, Strain/Indicator: TA1538, Metabolic Activation: NONE, Method: STANDARD PLATE); “active; positive” (Test System: AMES SALMONELLA TYPHIMURIUM, Strain/Indicator: TA1538, Metabolic Activation: RAT, LIVER, S-9, AROCLOR 1254, HAMSTER, LIVER, S-9, AROCLOR 1254, Method: STANDARD PLATE); “active; positive” (Test System: AMES SALMONELLA TYPHIMURIUM, Strain/Indicator: TA1538, Metabolic Activation: RAT, LIVER, S-9, AROCLOR 1254, Method: STANDARD PLATE); “active; positive. reevaluation of results: positive” (Test System: MOUSE LYMPHOMA, Strain/Indicator: L5178Y (TK+/TK-), Metabolic Activation: RAT, LIVER, S-9, AROCLOR 1254, Method: SUSPENSION/PLATE); “inactive; negative” (Test System: Mouse lymphoma, Strain/Indicator: L5178Y (tk+/tk-), Metabolic Activation: None, Method: Suspension/plate).

`Cc1ccc(N=Nc2c(O)ccc3ccccc23)c(S(=O)(=O)O)c1`: the mutagenic call by setting is: under setting [2], “inactive; negative”; (Test System: AMES SALMONELLA TYPHIMURIUM, Strain/Indicator: TA98, Metabolic Activation: RAT, LIVER, S-9, Method: STANDARD PLATE) “inactive; negative”; under setting [5], “inactive; negative”; (Test System: AMES SALMONELLA TYPHIMURIUM, Strain/Indicator: TA100, Metabolic Activation: RAT, LIVER, S-9, Method: STANDARD PLATE) “inactive; negative”.

In the case of `O=C1CCC(=O)N1c1ccc(Cl)c(Cl)c1Cl`, the mutagenic call by setting is: under setting [2], “inactive; negative”; under setting [3], “inactive; negative”; under setting [5], “inactive; negative”; under setting [6], “inactive; negative”.

For the compound `COc1cc(C[C@@H]2NCCc3cc(O)c(O)cc32)cc(OC)c1OC`, the mutagenic call by setting is: under setting [2], “inactive; negative”; under setting [3], “inactive; negative”; under setting [5], “inactive; negative”; under setting [6], “inactive; negative”; (Test System: AMES SALMONELLA TYPHIMURIUM, Strain/Indicator: TA1535, Metabolic Activation: NONE, Method: STANDARD PLATE) “inactive; negative”; (Test System: AMES SALMONELLA TYPHIMURIUM, Strain/Indicator: TA1535, Metabolic Activation: RAT, LIVER, S-9, AROCLOR 1254, Method: STANDARD PLATE) “inactive; negative”. The mutagenic call is, setting by setting: (Test System: AMES SALMONELLA TYPHIMURIUM, Strain/Indicator: TA1537, Metabolic Activation: NONE, Method: STANDARD PLATE) “inactive; negative”; (Test System: AMES SALMONELLA TYPHIMURIUM, Strain/Indicator: TA1537, Metabolic Activation: RAT, LIVER, S-9, AROCLOR 1254, Method: STANDARD PLATE) “inactive; negative”.

On to `O=C(O)c1cc(Cl)cc(Cl)c1`, for which the mutagenic call under setting [1] is “inactive; negative”; the mutagenic call (Test System: AMES SALMONELLA TYPHIMURIUM, Strain/Indicator: TA98, Metabolic Activation: RAT LIVER S-9, PCB, Method: PREINCUBATION) was “inactive; negative”; the mutagenic call under setting [4] is “inactive; negative”; the mutagenic call (Test System: AMES SALMONELLA TYPHIMURIUM, Strain/Indicator: TA100, Metabolic Activation: RAT LIVER S-9, PCB, Method: PREINCUBATION) was “inactive; negative”; the mutagenic call (Test System: AMES SALMONELLA TYPHIMURIUM, Strain/Indicator: TA104, Metabolic Activation: NONE, Method: PREINCUBATION) was “inactive; negative”; the mutagenic call (Test System: AMES SALMONELLA TYPHIMURIUM, Strain/Indicator: TA104, Metabolic Activation: RAT LIVER S-9, PCB, Method: PREINCUBATION) is “inactive; negative”. The mutagenic call is, setting by setting: (Test System: E.COLI, Strain/Indicator: WP2 UVRA, Metabolic Activation: NONE, Method: PREINCUBATION) “inactive; negative”; (Test System: E.COLI, Strain/Indicator: WP2 UVRA, Metabolic Activation: RAT LIVER S-9, PCB, Method: PREINCUBATION) “inactive; negative”.
